Patent US11753622B2, “Medium supplement to increase the efficiency of oocyte maturation and embryo culture in vitro” (The Curators of the University of Missouri, priority 2016, dated 2023)
Marks after values point to notes of the source that are not given here.

How the values were obtained:
porcine oocytes = test: Porcine oocyte in vitro maturation (IVM) in cytokine-supplemented medium, then IVF and culture to blastocyst; assay type: cell-based; conditions: for efficiency of producing nuclear matured (MII) oocytes / oocyte developmental competence (ability of zygotes to form blastocysts after IVF): single cytokine in IVM medium; for efficiency of producing nuclear matured (MII) oocytes: 42 hr, versus control; for oocyte developmental competence (ability of zygotes to form blastocysts after IVF): 6 days culture
Protocol: The individual effects of FGF2, LIF, and IGF-1 on maturation of oocytes derived from pre-pubertal pre-pubertal gilts after commercial slaughter were examined after each had been added to an otherwise standard, chemically-defined medium comprised of TCM 199 supplemented with 10 ng/ml EGF, 0.5 μg/ml LH, 0.5 μg/ml FSH, 3.05 mM glucose, 0.91 mM sodium pyruvate, 0.57 mM cysteine, 10 ng/mL gentamicin, and 0.1% polyvinyl alcohol (PVA). After 42 hr in the oocyte maturation medium with the single cytokine addition, oocytes were in vitro fertilized and the resulting zygotes were cultured under standard in vitro culture conditions for 6 days. […] (FIG. 2). Optimal concentrations of FGF2 (40 ng/ml) and LIF (20 ng/ml) were added in combination to the standard IVM medium. The combination of FGF2 and LIF improved nuclear maturation beyond that achieved with the single factors in Example 1 (Table 1). […] The effects of adding the IGF-1 at the optimal concentration of 20 ng/ml in combination with the other two cytokines to the IVM medium was then examined. The combination of all three cytokines (FGF2, LIF, and IGF-1) increased oocyte nuclear maturation to 89%, as compared to 55% in controls (FIG. 5 and Table 2, column 4). After IVF, zygotes from oocytes cultured in medium comprising FGF2, LIF, and IGF-1 advanced to the blastocyst stage more efficiently than controls (49.7% versus 38%). […] Oocytes derived from medium comprising FGF2, LIF, and IGF-1 also provided improved production of blastocysts following somatic cell nuclear transfer (SCNT), which requires removal of nuclear material from the egg followed by fusion of the enucleated oocyte with a somatic donor cell (FIG. 5). [table]

[1] = test system: oocyte meiotic maturation; test: Kinase inhibitors in FGF2, LIF and IGF-1 supplemented medium, oocyte meiotic maturation; assay type: cell-based, porcine; conditions: PD173074 10 μM, JAK inhibitor I 6 μM, OSI-906 10 μM, PD0325901 10 μM
Description: FIG. 6. Supplementation of FGF2, LIF and IGF-1 (FLI) regulates the changes of MAPK1/3 activation in cumulus cells (CCs) during IVM. […] Each CC sample was pooled from 50 cumulus oocyte complexes (COCs). This experiment was replicated four times. Asterisk denotes a significant difference between control and treatment, P<0.05. […] The experiments were replicated four times with 1208 oocytes. Different letters denote significant differences, P<0.05.

[2] = Table 1, after IVF, means ± SEM
[3] = Table 1, porcine IVM medium, FGF2 40 ng/ml, LIF 20 ng/ml, means ± SEM
[4] = Table 2, IVF embryos cultured in MU1-PZM six days, means ± SEM

Molecule | efficiency of producing nuclear matured (MII) oocytes (porcine oocytes) | oocyte developmental competence (ability of zygotes to form blastocysts after IVF) (porcine oocytes) | oocyte meiotic maturation [1] | other results
leukemia inhibitory factor [LIF] | improved | none of the cytokines improved |  | Blastocysts/Oocyte (%) (porcine oocytes; [2]): 19.6 ± 3.6^ab %; Blastocysts/Zygote (%) (porcine oocytes; [2]): 25.4 ± 4.0^b %; Nuclear Maturation (%) (porcine oocytes; [3]): 75.7 ± 3.1^a %
CCN(CC)CCCCNc1ncc2cc(-c3cc(OC)cc(OC)c3)c(NC(=O)NC(C)(C)C)nc2n1 [PD173074] |  |  | more moderate declines | 
C[C@]1(O)C[C@@H](c2nc(-c3ccc4ccc(-c5ccccc5)nc4c3)c3c(N)nccn32)C1 [OSI-906] |  |  | more moderate declines | 
JAK inhibitor I |  |  | more moderate declines | 
O=C(NOC[C@H](O)CO)c1ccc(F)c(F)c1Nc1ccc(I)cc1F [PD0325901] |  |  | almost complete block of meiotic maturation | 
insulin-like growth factor 1 [IGF-1] | improved | none of the cytokines improved |  | Blastocysts/Oocyte (%) (porcine oocytes; [4]): 33.6 ± 5.5^b %; Blastocysts/Zygote (%) (porcine oocytes; [4]): 44.7 ± 6.7^ab %; Nuclear Maturation (%) (porcine oocytes; Table 2, TCM-199 maturation medium, FGF2 40, LIF 20, IGF-1 20 ng/ml, means ± SEM): 74.8 ± 3.6^b %; Total blastocyst cell number (porcine oocytes; Table 2, day 6 blastocysts, means ± SEM): 34.7 ± 7.8^b
fibroblast growth factor 2 [FGF2] | improved | none of the cytokines improved |  | Blastocysts/Oocyte (%) (porcine oocytes; [2]): 25.6 ± 3.6^ab %; Blastocysts/Zygote (%) (porcine oocytes; [2]): 35.1 ± 4.9^a %; Nuclear Maturation (%) (porcine oocytes; [3]): 73.2 ± 3.4^a %
